Measurements from patent US11680056B2, “MK2 inhibitors and uses thereof” (Xinthera, Inc., priority 2021, dated 2023).

Experiments:
p38a/MK2 = p38a/MK2 (Homo sapiens (Human), UniProt P49137+Q16539); assay: p38a/MK2 biochemical assay: activation of MK2 by p38, FITC-HSP27 peptide phosphorylation (IMAP FP); details: 10-point 1:3 dilution, top dose 1 μM; 60 pM active p38a, 1 nM inactive MK2, 10 μM ATP, 2 h incubation; read-out: p38a/MK2 (1 μM) Enzyme pIC50 (converted)
p38a/PRAK = p38a/PRAK (Homo sapiens (Human), UniProt Q16539); assay: p38a/PRAK biochemical assay: activation of PRAK by p38, FITC-HSP27 peptide phosphorylation (IMAP FP); details: 10-point 1:3 dilution, top dose 300 μM; 60 pM active p38a, 1 nM inactive PRAK, 10 μM ATP, 2 h incubation; read-out: p38a/PRAK Enzyme pIC50 (converted)
Sequence of p38a/PRAK (Q16539 whole entry): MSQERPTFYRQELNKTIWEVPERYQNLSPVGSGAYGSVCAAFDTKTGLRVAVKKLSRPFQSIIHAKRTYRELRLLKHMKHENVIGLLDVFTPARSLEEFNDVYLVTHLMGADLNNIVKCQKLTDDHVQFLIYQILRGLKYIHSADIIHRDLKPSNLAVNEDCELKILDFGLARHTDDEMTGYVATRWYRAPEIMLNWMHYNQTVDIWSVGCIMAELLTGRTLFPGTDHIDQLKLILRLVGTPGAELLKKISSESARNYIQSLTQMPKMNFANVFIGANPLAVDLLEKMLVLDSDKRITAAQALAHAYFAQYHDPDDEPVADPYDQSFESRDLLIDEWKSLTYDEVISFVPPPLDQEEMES
Outline: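 GST-tagged MK2 (F46–H400) and PRAK (M1–Q471), expressed in E. coli, activated by p38 and phosphorylate FITC-HSP27 peptide over 2 h with compound; readout by IMAP fluorescence polarisation (ex 485/em 528 nm). Ten-point 1:3 dilutions, top dose 1 μM for MK2 and 300 μM for PRAK. IC50 after vehicle normalisation; selectivity = IC50(PRAK)/IC50(MK2).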

Sequence of p38a/MK2 (P49137 46-400): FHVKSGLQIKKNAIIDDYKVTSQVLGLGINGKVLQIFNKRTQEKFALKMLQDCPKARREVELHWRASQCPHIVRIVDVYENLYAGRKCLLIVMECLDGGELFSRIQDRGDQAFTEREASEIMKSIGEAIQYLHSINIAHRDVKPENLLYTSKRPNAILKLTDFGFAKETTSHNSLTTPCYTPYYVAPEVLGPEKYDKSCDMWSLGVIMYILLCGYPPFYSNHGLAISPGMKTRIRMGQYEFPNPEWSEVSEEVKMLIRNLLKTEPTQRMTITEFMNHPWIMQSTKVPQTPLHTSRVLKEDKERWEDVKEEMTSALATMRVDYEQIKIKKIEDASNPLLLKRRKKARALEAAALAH
Sequence of p38a/MK2 (Q16539 whole entry): as the sequence (Q16539 whole entry) above

IC50 (p38a/MK2) | IC50 (p38a/PRAK) | Structure (SMILES)
5.01 nM | 3160 nM | Cc1cnc(-c2ccnc(C3(O)CCC3)n2)cc1-n1c(C)cc(OCc2ncc(F)cc2F)c(Cl)c1=O (single isomer, unassigned) [Example 41A, rel-3-chloro-4-[(3,5-difluoropyridin-2-yl)methoxy]-2′-[2-(1-hydroxycyclobutyl)pyrimidin-4-yl]-5′,6-dimethyl-[1,4′-bipyridin]-2-one]
> 1000 nM | > 316000 nM | Cc1cnc(-c2ccnc(C3(O)CCC3)n2)cc1-n1c(C)cc(OCc2ncc(F)cc2F)c(Cl)c1=O (single isomer, unassigned) [Example 41B, rel-3-chloro-4-[(3,5-difluoropyridin-2-yl)methoxy]-2′-[2-(1-hydroxycyclobutyl)pyrimidin-4-yl]-5′,6-dimethyl-[1,4′-bipyridin]-2-one]
501 nM | 6310 nM | Cc1cnc(-c2nc(C(C)(C)O)n(C)n2)cc1-n1c(C)cc(OCc2ncc(F)cc2F)c(Cl)c1=O (single isomer, unassigned) [Example 42A, rel-3-chloro-4-[(3,5-difluoropyridin-2-yl)methoxy]-2′-[5-(2-hydroxypropan-2-yl)-1-methyl-1,2,4-triazol-3-yl]-5′,6-dimethyl-[1,4′-bipyridin]-2-one]
> 1000 nM | > 316000 nM | Cc1cnc(-c2nc(C(C)(C)O)n(C)n2)cc1-n1c(C)cc(OCc2ncc(F)cc2F)c(Cl)c1=O (single isomer, unassigned) [Example 42B, rel-3-chloro-4-[(3,5-difluoropyridin-2-yl)methoxy]-2′-[5-(2-hydroxypropan-2-yl)-1-methyl-1,2,4-triazol-3-yl]-5′,6-dimethyl-[1,4′-bipyridin]-2-one]
12.6 nM | 2510 nM | Cc1cnc(-c2ccnc(N(C)CCO)n2)cc1-n1c(C)cc(OCc2ncc(F)cc2F)c(Cl)c1=O (single isomer, unassigned) [Example 43A, rel-3-chloro-4-[(3,5-difluoropyridin-2-yl)methoxy]-2′-{2-[(2-hydroxyethyl)(methyl)amino]pyrimidin-4-yl}-5′,6-dimethyl-[1,4′-bipyridin]-2-one]
> 1000 nM | > 316000 nM | Cc1cnc(-c2ccnc(N(C)CCO)n2)cc1-n1c(C)cc(OCc2ncc(F)cc2F)c(Cl)c1=O (single isomer, unassigned) [Example 43B, rel-3-chloro-4-[(3,5-difluoropyridin-2-yl)methoxy]-2′-{2-[(2-hydroxyethyl)(methyl)amino]pyrimidin-4-yl}-5′,6-dimethyl-[1,4′-bipyridin]-2-one]
> 1000 nM | > 316000 nM | Cc1cnc(-n2ccc(C(=O)NC3CC3)n2)cc1-n1c(C)cc(OCc2ncc(F)cc2F)c(Cl)c1=O (single isomer, unassigned) [Example 44B, rel-1-{3-chloro-4-[(3,5-difluoropyridin-2-yl)methoxy]-5′,6-dimethyl-2-oxo-[1,4′-bipyridin]-2′-yl}-N-cyclopropylpyrazole-3-carboxamide]
> 1000 nM | > 316000 nM | Cc1ncc(-c2ccnc(C(C)(C)O)n2)cc1-n1c(C)cc(OCc2ncc(F)cc2F)c(Cl)c1=O (single isomer, unassigned) [Example 45A, rel-3-chloro-4-[(3,5-difluoropyridin-2-yl)methoxy]-5′-[2-(2-hydroxypropan-2-yl)pyrimidin-4-yl]-2′,6-dimethyl-[1,3′-bipyridin]-2-one]
501 nM | 39800 nM | Cc1ncc(-c2ccnc(C(C)(C)O)n2)cc1-n1c(C)cc(OCc2ncc(F)cc2F)c(Cl)c1=O (single isomer, unassigned) [Example 45B, rel-3-chloro-4-[(3,5-difluoropyridin-2-yl)methoxy]-5′-[2-(2-hydroxypropan-2-yl)pyrimidin-4-yl]-2′,6-dimethyl-[1,3′-bipyridin]-2-one]
15.8 nM | 2510 nM | Cc1cnc(-n2ccc(CC(C)(C)O)n2)cc1-n1c(C)cc(OCc2ncc(F)cc2F)c(Cl)c1=O (single isomer, unassigned) [Example 46A, rel-3-chloro-4-[(3,5-difluoropyridin-2-yl)methoxy]-2′-[3-(2-hydroxy-2-methylpropyl)pyrazol-1-yl]-5′,6-dimethyl-[1,4′-bipyridin]-2-one]
> 1000 nM | > 316000 nM | Cc1cnc(-n2ccc(CC(C)(C)O)n2)cc1-n1c(C)cc(OCc2ncc(F)cc2F)c(Cl)c1=O (single isomer, unassigned) [Example 46B, rel-3-chloro-4-[(3,5-difluoropyridin-2-yl)methoxy]-2′-[3-(2-hydroxy-2-methylpropyl)pyrazol-1-yl]-5′,6-dimethyl-[1,4′-bipyridin]-2-one]
2 nM | 5010 nM | Cc1cnc(-n2ccc(C(C)(C)O)n2)cc1-n1c(C)cc(OCc2ncc(F)cc2Cl)c(Cl)c1=O (single isomer, unassigned) [Example 47A, rel-3-chloro-4-[(3-chloro-5-fluoropyridin-2-yl)methoxy]-2′-[3-(2-hydroxypropan-2-yl)pyrazol-1-yl]-5′,6-dimethyl-[1,4′-bipyridin]-2-one]
> 1000 nM | > 316000 nM | Cc1cnc(-n2ccc(C(C)(C)O)n2)cc1-n1c(C)cc(OCc2ncc(F)cc2Cl)c(Cl)c1=O (single isomer, unassigned) [Example 47B, rel-3-chloro-4-[(3-chloro-5-fluoropyridin-2-yl)methoxy]-2′-[3-(2-hydroxypropan-2-yl)pyrazol-1-yl]-5′,6-dimethyl-[1,4′-bipyridin]-2-one]
5.01 nM | 2000 nM | Cc1cnc(-c2ccnc(CC3(O)CC3)n2)cc1-n1c(C)cc(OCc2ncc(F)cc2F)c(Cl)c1=O (single isomer, unassigned) [Example 48A, rel-3-chloro-4-[(3,5-difluoropyridin-2-yl)methoxy]-2′-{2-[(1-hydroxycyclopropyl)methyl]pyrimidin-4-yl}-5′,6-dimethyl-[1,4′-bipyridin]-2-one]
> 1000 nM | > 316000 nM | Cc1cnc(-c2ccnc(CC3(O)CC3)n2)cc1-n1c(C)cc(OCc2ncc(F)cc2F)c(Cl)c1=O (single isomer, unassigned) [Example 48B, rel-3-chloro-4-[(3,5-difluoropyridin-2-yl)methoxy]-2′-{2-[(1-hydroxycyclopropyl)methyl]pyrimidin-4-yl}-5′,6-dimethyl-[1,4′-bipyridin]-2-one]
6.31 nM | 3160 nM | Cc1cnc(-c2ccnc(C(C)(C)O)n2)c(C)c1-n1c(C)cc(OCc2ncc(F)cc2F)c(Cl)c1=O (single isomer, unassigned) [Example 49A, rel-3-chloro-4-((3,5-difluoropyridin-2-yl)methoxy)-2′-(2-(2-hydroxypropan-2-yl)pyrimidin-4-yl)-3′,5′,6-trimethyl-2H-[1,4′-bipyridin]-2-one]
> 1000 nM | > 316000 nM | Cc1cnc(-c2ccnc(C(C)(C)O)n2)c(C)c1-n1c(C)cc(OCc2ncc(F)cc2F)c(Cl)c1=O (single isomer, unassigned) [Example 49B, rel-3-chloro-4-((3,5-difluoropyridin-2-yl)methoxy)-2′-(2-(2-hydroxypropan-2-yl)pyrimidin-4-yl)-3′,5′,6-trimethyl-2H-[1,4′-bipyridin]-2-one]
12.6 nM | 10000 nM | Cc1cnc(-n2ccc(C(C)(C)O)n2)c(C)c1-n1c(C)cc(OCc2ncc(F)cc2F)c(Cl)c1=O (single isomer, unassigned) [Example 50A, rel-3-chloro-4-[(3,5-difluoropyridin-2-yl)methoxy]-2′-[3-(2-hydroxypropan-2-yl)pyrazol-1-yl]-3′,5′,6-trimethyl-[1,4′-bipyridin]-2-one]
> 1000 nM | > 316000 nM | Cc1cnc(-n2ccc(C(C)(C)O)n2)c(C)c1-n1c(C)cc(OCc2ncc(F)cc2F)c(Cl)c1=O (single isomer, unassigned) [Example 50B, rel-3-chloro-4-[(3,5-difluoropyridin-2-yl)methoxy]-2′-[3-(2-hydroxypropan-2-yl)pyrazol-1-yl]-3′,5′,6-trimethyl-[1,4′-bipyridin]-2-one]
79.4 nM | 5010 nM | Cc1cnc(-c2cncc(C(C)(C)O)n2)cc1-n1c(C)cc(OCc2ncc(F)cc2F)c(Cl)c1=O (single isomer, unassigned) [Example 51A, rel-3-chloro-4-[(3,5-difluoropyridin-2-yl)methoxy]-2′-[6-(2-hydroxypropan-2-yl)pyrazin-2-yl]-5′,6-dimethyl-[1,4′-bipyridin]-2-one]
> 1000 nM | > 316000 nM | Cc1cnc(-c2cncc(C(C)(C)O)n2)cc1-n1c(C)cc(OCc2ncc(F)cc2F)c(Cl)c1=O (single isomer, unassigned) [Example 51B, rel-3-chloro-4-[(3,5-difluoropyridin-2-yl)methoxy]-2′-[6-(2-hydroxypropan-2-yl)pyrazin-2-yl]-5′,6-dimethyl-[1,4′-bipyridin]-2-one]
> 1000 nM | > 316000 nM | Cc1c(-n2c(C)cc(OCc3ncc(F)cc3F)c(Cl)c2=O)ccnc1-n1ccc(C(C)(C)O)n1 (single isomer, unassigned) [Example 52A, rel-3-chloro-4-((3,5-difluoropyridin-2-yl)methoxy)-2′-(3-(2-hydroxypropan-2-yl)-1H-pyrazol-1-yl)-3′,6-dimethyl-2H-[1,4′-bipyridin]-2-one]
15.8 nM | 25100 nM | Cc1c(-n2c(C)cc(OCc3ncc(F)cc3F)c(Cl)c2=O)ccnc1-n1ccc(C(C)(C)O)n1 (single isomer, unassigned) [Example 52B, rel-3-chloro-4-((3,5-difluoropyridin-2-yl)methoxy)-2′-(3-(2-hydroxypropan-2-yl)-1H-pyrazol-1-yl)-3′,6-dimethyl-2H-[1,4′-bipyridin]-2-one]
